Measured values: article PMC8890504, “Evolution of Brain-Expressed Biogenic Amine Receptors into Olfactory Trace Amine-Associated Receptors” (Molecular Biology and Evolution, 2022)
“And” between values parts separate entries of the source, which are not always exact repeats. Identical values can stand only once.

How the values were obtained:
TARLL4a = TARLL4a (Petromyzon marinus, UniProt A0AAJ7T9R0); assay: Cell-based receptor activation reporter assay (SEAP / Dual-Glo luciferase); design: species or system sea lamprey; conditions: for EC50: TARLL4a; for ligand profile of TARLL4a: ligand library at 100 µM, fig. 4B, fig. S9B
TARLL4a, sequence (A0AAJ7T9R0 entry or part of it): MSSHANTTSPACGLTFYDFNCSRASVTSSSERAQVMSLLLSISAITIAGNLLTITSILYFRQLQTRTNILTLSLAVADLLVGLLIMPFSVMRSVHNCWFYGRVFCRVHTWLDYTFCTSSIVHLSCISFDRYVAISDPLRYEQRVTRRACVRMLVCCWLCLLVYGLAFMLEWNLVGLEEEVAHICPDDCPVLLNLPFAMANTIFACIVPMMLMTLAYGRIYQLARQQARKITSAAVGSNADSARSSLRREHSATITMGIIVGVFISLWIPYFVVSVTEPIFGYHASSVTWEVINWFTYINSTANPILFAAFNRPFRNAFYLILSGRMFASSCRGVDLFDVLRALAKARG
Procedure: (§1) Fluorescence was measured with a BioTek Microplate reader.

cat TAAR9 = assay: as above; conditions: table S3
Procedure: as §1

hamster TAAR9 = molecular target: T1, hamster TAAR9 (Mesocricetus auratus, UniProt A0A1U7R5X1); assay: as above; conditions: table S3
T1 construct: Rho tag (N-terminal 20 aa of bovine rhodopsin); expressed in transfected cells; host or cells: HEK293T (SEAP assay) or Hana3A (Dual-Glo luciferase assay)
T1 sequence (A0A1U7R5X1 1-348): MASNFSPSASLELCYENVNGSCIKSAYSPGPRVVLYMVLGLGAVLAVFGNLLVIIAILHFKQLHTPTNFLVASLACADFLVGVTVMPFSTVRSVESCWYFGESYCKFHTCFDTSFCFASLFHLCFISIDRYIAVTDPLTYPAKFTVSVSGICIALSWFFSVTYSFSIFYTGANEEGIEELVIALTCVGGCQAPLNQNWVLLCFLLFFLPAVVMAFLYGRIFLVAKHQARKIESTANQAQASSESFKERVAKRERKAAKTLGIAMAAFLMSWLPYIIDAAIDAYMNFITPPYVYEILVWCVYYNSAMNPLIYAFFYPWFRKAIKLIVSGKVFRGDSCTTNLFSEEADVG
Procedure: as §1

rabbit TAAR9 = molecular target: T2, rabbit TAAR9 (Oryctolagus cuniculus, UniProt G1SUU9); assay: as above; conditions: table S3
T2 construct: Rho tag (N-terminal 20 aa of bovine rhodopsin); expressed in transfected cells; host or cells: HEK293T (SEAP assay) or Hana3A (Dual-Glo luciferase assay)
T2 sequence (G1SUU9 1-348): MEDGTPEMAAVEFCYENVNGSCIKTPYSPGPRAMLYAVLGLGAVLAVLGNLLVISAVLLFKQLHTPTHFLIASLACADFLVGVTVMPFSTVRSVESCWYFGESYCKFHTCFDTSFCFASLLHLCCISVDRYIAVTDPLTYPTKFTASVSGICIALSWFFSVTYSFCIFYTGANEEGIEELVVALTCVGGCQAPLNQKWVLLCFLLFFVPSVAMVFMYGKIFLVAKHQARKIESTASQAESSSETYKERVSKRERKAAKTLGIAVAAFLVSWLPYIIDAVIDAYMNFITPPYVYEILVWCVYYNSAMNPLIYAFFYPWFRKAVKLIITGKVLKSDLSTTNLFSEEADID
Procedure: as §1

rat TAAR9 = molecular target: T3, rat TAAR9 (Rattus norvegicus, UniProt Q923Y6); assay: as above; conditions: table S3
T3 construct: bovine rhodopsin N-terminal 20 amino acids (Rho tag); expressed in transfected cells; host or cells: HEK293(T) (SEAP assay) or Hana3A (Dual-Glo assay)
T3 sequence (Q923Y6 1-338): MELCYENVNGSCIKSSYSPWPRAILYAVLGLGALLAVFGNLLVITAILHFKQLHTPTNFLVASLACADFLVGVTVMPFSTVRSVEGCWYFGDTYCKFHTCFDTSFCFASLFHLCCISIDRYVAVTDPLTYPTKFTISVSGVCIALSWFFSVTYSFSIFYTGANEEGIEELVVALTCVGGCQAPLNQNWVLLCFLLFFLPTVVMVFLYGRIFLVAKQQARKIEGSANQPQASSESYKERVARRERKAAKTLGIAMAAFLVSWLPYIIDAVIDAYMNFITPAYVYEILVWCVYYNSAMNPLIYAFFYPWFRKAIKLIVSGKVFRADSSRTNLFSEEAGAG
Procedure: as §1

mouse TAAR9 = test system: mouse TAAR9; design: method as in Saraiva et al. 2016; conditions: ref Saraiva et al. 2016; cited from earlier work
[1] = test system: TARLL2a (also called TAAR346a); design: method as in Scott et al. 2019; conditions: ref Scott et al. 2019; cited from earlier work
mouse TAAR1 = mouse TAAR1 (Mus musculus, UniProt Q923Y8); assay: cell-based; conditions: for response of mouse TAAR1: ligands at 10 µM, luciferase assay, fig. 5B
mouse TAAR1, sequence (Q923Y8 whole entry): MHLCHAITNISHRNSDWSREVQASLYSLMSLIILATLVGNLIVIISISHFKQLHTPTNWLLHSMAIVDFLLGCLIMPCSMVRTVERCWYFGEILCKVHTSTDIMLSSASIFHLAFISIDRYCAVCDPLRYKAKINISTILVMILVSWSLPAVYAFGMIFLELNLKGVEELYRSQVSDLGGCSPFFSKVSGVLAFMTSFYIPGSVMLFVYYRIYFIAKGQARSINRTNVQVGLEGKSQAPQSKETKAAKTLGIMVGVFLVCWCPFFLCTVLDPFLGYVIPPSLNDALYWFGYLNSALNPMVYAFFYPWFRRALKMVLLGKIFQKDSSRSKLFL
Text: (§2) Next, we conducted high-throughput screening to further explore the functional properties of these aminergic receptors. We cloned 248 TAARs from 11 mammals (human, mouse, rat, guinea pig, hamster, cat, horse, rabbit, sheep, rhesus, and wild boar), two reptiles (alligator and chicken), six teleosts (zebrafish, catfish, fugu, medaka, salmon, and pufferfish), one lobed-finned fish (coelacanth), one holost fish (spotted gar), and one cartilaginous fish (bamboo shark) (fig. 2A). We also cloned eight TARLs from coelacanth, zebrafish, catfish, fugu, medaka, spotted gar, shark, and 28 TARLLs from sea lamprey (supplementary table S2, Supplementary Material online). In addition, we cloned two HTR4s from mouse and zebrafish. We then challenged all of the cloned receptors with a ligand library comprised 97 amines at 100 µM.
We then compared the responses of HTR4 from mouse and zebrafish, TARL1 from zebrafish, catfish, fugu, medaka, spotted gar, and coelacanth, TARL2 from coelacanth and shark, TAAR1 from mouse and zebrafish to the 16 ligands at 10 µM (fig. 5B).
(§3) HEK293 cells were plated onto poly-D-lysine (Sigma–Aldrich) preincubated 96-well plates (Corning) with 50 µl growth medium (DMEM medium with 10% BCS and 5% penicillin–streptomycin solution) and cultured for 18–24 h. Receptor plasmids were cotransfected with Cre-SEAP plasmid using polyethylenimine (PEI, Polysciences) and incubated at 37 °C with 5% CO2. About 4 h later, cells were incubated with or without test compounds diluted in serum-free DMEM for 48 h, followed by incubating for 2 h at 70 °C. After returning to room temperature, 50 µl supernatant from each well was incubated with an equal volume of 0.3 mM 4-methylumbelliferyl phosphate (4-MUP, Sigma–Aldrich) in 2 M diethanolamine bicarbonate (Sigma–Aldrich), pH 10.0 for 15 min. Fluorescence was measured with a BioTek Microplate reader.
(§4) Hana3A cells were plated onto 96-well plates (Greiner bio-one) with 50 µl growth medium (DMEM medium with 10% BCS and 5% penicillin–streptomycin solution with puromycin) and cultured at 37 °C with 5% CO2. After 18–24 h, cells in each well were cotransfected with 50 ng receptor plasmid, 10 ng CRE-Luc, 10 ng pRL-SV40, and 10 ng mRTPs using Lipofectamine 2000 (Invitrogen), and incubated for 18 h. Medium was then replaced by 25 µl CD293 (Invitrogen) containing 1% glutamine with or without test compounds for 4 h. The chemiluminescence of firefly luciferase and renilla luciferase were measured with a Biotek Microplate reader using the Dual-Glo Luciferase Assay System (Promega).

TARLL1b = TARLL1b (Petromyzon marinus, UniProt A0AAJ7TCG4); assay: Cell-based receptor activation reporter assay (SEAP / Dual-Glo luciferase); design: species or system sea lamprey; conditions: for EC50: TARLL1b
TARLL1b, sequence (A0AAJ7TCG4 entry or part of it): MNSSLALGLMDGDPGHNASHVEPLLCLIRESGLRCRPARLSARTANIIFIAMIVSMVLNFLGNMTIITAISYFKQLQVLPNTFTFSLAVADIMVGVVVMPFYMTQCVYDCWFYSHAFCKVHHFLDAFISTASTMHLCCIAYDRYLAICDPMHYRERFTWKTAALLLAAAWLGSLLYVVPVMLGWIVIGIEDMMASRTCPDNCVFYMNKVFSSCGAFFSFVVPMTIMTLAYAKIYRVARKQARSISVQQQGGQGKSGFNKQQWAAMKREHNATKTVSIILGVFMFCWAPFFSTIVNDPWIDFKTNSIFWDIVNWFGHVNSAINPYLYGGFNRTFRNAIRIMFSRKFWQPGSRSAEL
Procedure: as §1

TARLL3h = TARLL3h (Petromyzon marinus, UniProt A0A678XJN9); assay: as above; design: species or system sea lamprey; conditions: for EC50: TARLL3h; for ligand recognition by TARLL3h: fig. 4C
TARLL3h, sequence (A0A678XJN9 entry or part of it): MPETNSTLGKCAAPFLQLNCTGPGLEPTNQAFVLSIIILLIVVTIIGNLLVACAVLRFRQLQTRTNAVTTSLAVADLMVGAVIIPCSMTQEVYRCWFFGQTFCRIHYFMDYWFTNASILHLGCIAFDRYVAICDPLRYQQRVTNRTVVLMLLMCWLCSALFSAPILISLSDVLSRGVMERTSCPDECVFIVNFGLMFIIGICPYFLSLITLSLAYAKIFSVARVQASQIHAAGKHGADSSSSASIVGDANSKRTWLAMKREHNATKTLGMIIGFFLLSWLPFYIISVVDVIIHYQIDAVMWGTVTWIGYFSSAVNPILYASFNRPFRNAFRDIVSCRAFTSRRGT
Procedure: as §1

TARLL3h D3.32A = assay: Site-directed mutagenesis, cell-based receptor activation; design: species or system sea lamprey; conditions: mutation of Asp3.32 to alanine; ligand per fig. S9C
Procedure: (§5) Recognition of diamines in TAARs involves two aspartic acids, Asp^3.32 and Asp^5.42 ([Li et al. 2015]; [Sharma et al. 2016]). However, although Asp^3.32 is retained in TARLL3h, Asp^5.42 is not found, implying a distinct diamine recognition mechanism in TARLL3h. To investigate this further, we performed homology modeling and ligand docking in TARLL3h. In addition to Asp^3.32 that forms a salt bridge with N,N,N′,N′-tetramethyl-1,4-butanediamine or N,N,N′,N′-tetramethyl-1,3-propanediamine, Tyr^3.33 binds to the other amino group through pi–cation interactions in TARLL3h (fig. 4D). […] To verify the docking results, we performed site-directed mutagenesis in TARLL3h.
as §1

TARLL3h Y3.33A = assay: as above; design: species or system sea lamprey; conditions: mutation of Tyr3.33 to alanine; ligand per fig. S9C
Procedure: as §5, §1

TARLL3h Y3.33F = assay: as above; design: species or system sea lamprey; conditions: mutation of Tyr3.33 to phenylalanine; ligand per fig. S9C
Procedure: as §5, §1

guinea pig TAAR3 = guinea pig TAAR3 (Cavia porcellus, UniProt H0W7C9); assay: Cell-based receptor activation reporter assay (SEAP / Dual-Glo luciferase)
guinea pig TAAR3, sequence (H0W7C9 entry or part of it): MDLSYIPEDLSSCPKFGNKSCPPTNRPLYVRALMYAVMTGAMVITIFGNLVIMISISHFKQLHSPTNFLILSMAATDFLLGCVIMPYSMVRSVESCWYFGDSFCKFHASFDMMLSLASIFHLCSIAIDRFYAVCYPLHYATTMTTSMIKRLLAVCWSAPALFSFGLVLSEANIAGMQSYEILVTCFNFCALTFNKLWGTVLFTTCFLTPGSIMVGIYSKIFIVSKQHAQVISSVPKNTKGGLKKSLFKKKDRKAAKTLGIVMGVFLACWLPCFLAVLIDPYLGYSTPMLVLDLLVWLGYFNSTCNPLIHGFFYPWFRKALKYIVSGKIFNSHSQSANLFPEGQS
Procedure: as §1

hamster TAAR3 = hamster TAAR3 (Mesocricetus auratus, UniProt A0A1U7Q6M0); assay: as above
hamster TAAR3, sequence (A0A1U7Q6M0 entry or part of it): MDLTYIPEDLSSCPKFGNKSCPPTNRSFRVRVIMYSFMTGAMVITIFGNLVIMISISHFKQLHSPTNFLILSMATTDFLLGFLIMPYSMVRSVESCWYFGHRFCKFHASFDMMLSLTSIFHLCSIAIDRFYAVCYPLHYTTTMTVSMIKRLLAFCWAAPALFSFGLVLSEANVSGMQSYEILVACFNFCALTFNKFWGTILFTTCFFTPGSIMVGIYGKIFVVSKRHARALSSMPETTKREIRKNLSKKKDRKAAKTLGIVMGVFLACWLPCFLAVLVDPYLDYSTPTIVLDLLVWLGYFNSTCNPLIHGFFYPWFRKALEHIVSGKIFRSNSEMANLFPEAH
Procedure: as §1

shark TAARS1b = shark TAARS1b (Chiloscyllium punctatum, UniProt A0A401S5C1); assay: as above; design: species or system bamboo shark
shark TAARS1b, sequence (A0A401S5C1 entry or part of it): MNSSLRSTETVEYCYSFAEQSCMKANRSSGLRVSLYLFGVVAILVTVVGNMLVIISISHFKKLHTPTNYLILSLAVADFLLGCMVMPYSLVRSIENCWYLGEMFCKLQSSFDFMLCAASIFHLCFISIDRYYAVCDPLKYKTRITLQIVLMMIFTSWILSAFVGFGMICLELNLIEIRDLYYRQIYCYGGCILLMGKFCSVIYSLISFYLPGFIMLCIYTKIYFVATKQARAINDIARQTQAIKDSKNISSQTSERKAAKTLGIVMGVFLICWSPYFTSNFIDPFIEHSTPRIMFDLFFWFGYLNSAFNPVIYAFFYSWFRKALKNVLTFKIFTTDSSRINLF
Procedure: as §1

sheep TAAR5 = sheep TAAR5 (Ovis aries, UniProt A0ACI6PZ16); assay: as above
sheep TAAR5, sequence (A0ACI6PZ16 entry or part of it): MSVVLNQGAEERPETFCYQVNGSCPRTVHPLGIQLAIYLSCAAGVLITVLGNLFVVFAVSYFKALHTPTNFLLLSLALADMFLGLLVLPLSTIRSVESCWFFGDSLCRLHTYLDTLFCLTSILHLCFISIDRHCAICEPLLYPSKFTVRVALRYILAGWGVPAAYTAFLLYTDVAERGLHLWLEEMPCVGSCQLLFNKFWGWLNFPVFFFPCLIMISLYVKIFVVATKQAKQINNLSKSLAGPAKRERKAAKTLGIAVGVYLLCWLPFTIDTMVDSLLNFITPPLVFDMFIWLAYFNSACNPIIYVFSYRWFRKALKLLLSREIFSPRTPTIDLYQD
Procedure: as §1

zebrafish TAAR13c = test system: zebrafish TAAR13c; design: method as in Hussain et al. 2013; conditions: ref Hussain et al. 2013; cited from earlier work
mouse HTR4 = mouse HTR4 (Mus musculus, UniProt P97288); assay: cell-based
mouse HTR4, sequence (P97288 whole entry): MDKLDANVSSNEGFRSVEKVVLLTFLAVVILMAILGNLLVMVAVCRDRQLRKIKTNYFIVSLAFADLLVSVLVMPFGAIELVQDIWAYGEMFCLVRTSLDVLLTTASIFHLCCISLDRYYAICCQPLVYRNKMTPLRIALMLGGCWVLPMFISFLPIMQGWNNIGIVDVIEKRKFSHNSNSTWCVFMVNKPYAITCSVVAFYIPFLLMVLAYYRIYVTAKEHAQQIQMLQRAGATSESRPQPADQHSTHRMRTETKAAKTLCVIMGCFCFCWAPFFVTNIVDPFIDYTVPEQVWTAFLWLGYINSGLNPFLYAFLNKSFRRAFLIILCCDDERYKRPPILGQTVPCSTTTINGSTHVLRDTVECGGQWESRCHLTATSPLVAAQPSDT
Text: as §2, §3, §4

(UniProt Z9G6W3R3V9) = assay: Cell-based receptor activation reporter assay (SEAP / Dual-Glo luciferase); conditions: coelacanth TARL1
Procedure: as §1

coelacanth TAARC1b = coelacanth TAARC1b (Latimeria chalumnae, UniProt H3A8V0); assay: as above
coelacanth TAARC1b, sequence (H3A8V0 entry or part of it): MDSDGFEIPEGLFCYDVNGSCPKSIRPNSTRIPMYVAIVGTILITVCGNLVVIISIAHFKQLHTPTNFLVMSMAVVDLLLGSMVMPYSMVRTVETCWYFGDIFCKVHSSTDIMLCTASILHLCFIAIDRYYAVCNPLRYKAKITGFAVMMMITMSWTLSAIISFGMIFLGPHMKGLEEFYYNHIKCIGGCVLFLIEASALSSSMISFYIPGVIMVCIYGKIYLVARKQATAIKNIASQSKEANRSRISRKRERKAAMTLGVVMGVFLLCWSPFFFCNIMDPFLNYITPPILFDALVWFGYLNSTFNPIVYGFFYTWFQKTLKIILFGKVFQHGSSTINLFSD
Procedure: as §1

coelacanth TARL2 = coelacanth TARL2 (Latimeria chalumnae, UniProt H3AWX3); assay: as above
coelacanth TARL2, sequence (H3AWX3 entry or part of it): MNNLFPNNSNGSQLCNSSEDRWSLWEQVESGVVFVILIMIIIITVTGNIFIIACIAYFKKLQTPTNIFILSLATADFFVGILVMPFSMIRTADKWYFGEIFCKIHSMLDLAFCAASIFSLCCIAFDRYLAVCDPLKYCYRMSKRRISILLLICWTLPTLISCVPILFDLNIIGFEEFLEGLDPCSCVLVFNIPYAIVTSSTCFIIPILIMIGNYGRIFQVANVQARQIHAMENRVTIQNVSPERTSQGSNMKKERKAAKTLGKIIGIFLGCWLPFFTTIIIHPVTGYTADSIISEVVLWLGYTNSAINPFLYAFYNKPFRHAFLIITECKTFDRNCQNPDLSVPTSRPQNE
Procedure: as §1

zebrafish TAAR1 = zebrafish TAAR1 (Danio rerio, UniProt Q5QNN1); assay: as above; conditions: zTAAR1
zebrafish TAAR1, sequence (Q5QNN1 entry or part of it): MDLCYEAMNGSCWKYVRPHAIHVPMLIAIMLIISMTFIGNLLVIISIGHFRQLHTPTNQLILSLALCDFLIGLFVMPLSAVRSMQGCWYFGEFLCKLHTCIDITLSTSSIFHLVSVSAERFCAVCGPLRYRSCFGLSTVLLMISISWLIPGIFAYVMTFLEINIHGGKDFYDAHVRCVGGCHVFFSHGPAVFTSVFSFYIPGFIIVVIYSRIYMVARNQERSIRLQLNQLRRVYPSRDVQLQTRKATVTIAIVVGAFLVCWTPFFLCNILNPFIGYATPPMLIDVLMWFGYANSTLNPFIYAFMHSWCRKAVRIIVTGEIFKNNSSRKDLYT
Procedure: as §1

zebrafish TARL1 = zebrafish TARL1 (Danio rerio, UniProt A0A8M1Q794); assay: as above
zebrafish TARL1, sequence (A0A8M1Q794 entry or part of it): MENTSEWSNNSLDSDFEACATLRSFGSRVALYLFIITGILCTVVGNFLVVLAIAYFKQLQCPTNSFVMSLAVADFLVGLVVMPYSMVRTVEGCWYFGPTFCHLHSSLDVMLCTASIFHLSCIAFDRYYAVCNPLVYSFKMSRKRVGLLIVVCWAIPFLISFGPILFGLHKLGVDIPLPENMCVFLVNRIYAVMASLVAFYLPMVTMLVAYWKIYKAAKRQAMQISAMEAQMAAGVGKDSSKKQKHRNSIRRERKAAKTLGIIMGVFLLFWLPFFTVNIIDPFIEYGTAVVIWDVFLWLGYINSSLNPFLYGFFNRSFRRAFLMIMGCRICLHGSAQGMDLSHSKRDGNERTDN
Procedure: as §1

CCCCN [Butylamine, butylamine]
EC50 (TARLL4a): 73.5 µM

NCCCNCCCCNCCCN [spermine]
activation of TAAR9 (cat TAAR9): activation
activation of TAAR9 (hamster TAAR9): activation
activation of TAAR9 (rabbit TAAR9): activation
activation of TAAR9 (rat TAAR9): activation
ligand recognition by mouse TAAR9 (mouse TAAR9): can recognize
ligand recognition by TARLL2a [1]: recognize

CC(C)CN [Isobutylamine, isobutylamine]
EC50 (TARLL4a): 199 µM

CCCCCCN [Hexylamine, hexylamine]
EC50 (TARLL4a): 20.4 µM
ligand profile of TARLL4a (TARLL4a): ligand profile includes
response of mouse TAAR1 (mouse TAAR1): slight responses

CSCCCN [3-methylthiopropylamine]
EC50 (TARLL4a): 62.4 µM

Cc1c[nH]c2ccccc12 [3-methylindole]
EC50 (TARLL1b): 6.6 µM

NCCCCCO [5-amino-1-pentanol]
EC50 (TARLL4a): 40.3 µM

Cc1ccc2[nH]ccc2c1 [5-methylindole]
EC50 (TARLL1b): 8.9 µM

CN(C)CCCCN(C)C [N,N,N',N'-tetramethyl-1,4-butanediamine, N,N,N′,N′-tetramethyl-1,4-butanediamine]
EC50 (TARLL3h): 40.4 µM
ligand recognition by TARLL3h (TARLL3h): recognizes
receptor activity of TARLL3h mutant D3.32A (TARLL3h D3.32A): completely eliminated the receptor activity
receptor activity of TARLL3h mutant Y3.33A (TARLL3h Y3.33A): completely eliminated the receptor activity
EC50 of TARLL3h mutant Y3.33F relative to wild type receptor (TARLL3h Y3.33F): EC50 three times higher than wild type receptor

CC(C)CCN [Isoamylamine, isoamylamine]
EC50 (TARLL4a): 141 µM
EC50 (guinea pig TAAR3): 200 µM and ~200 µM
EC50 (hamster TAAR3): 300 µM and ~300 µM

CC(C)N(C)C [N,N-dimethylisopropylamine]
EC50 (shark TAARS1b): 40.3 µM
EC50 (sheep TAAR5): 50 µM and ~50 µM

NC1CCCC1 [Cyclopentylamine, cyclopentylamine]
EC50 (TARLL4a): 113 µM

c1ccc2[nH]ccc2c1 [Indole, indole]
EC50 (TARLL1b): 18.9 µM
activation of TARLL1b (TARLL1b; fig. 4E, fig. S9D and E): can be activated

CCCCCCCCN [octylamine]
response of mouse TAAR1 (mouse TAAR1): slight responses

CCCN [Propylamine, propylamine]
EC50 (TARLL4a): 133 µM

Cn1ccc2ccccc21 [1-methylindole]
EC50 (TARLL1b): 162 µM

NC1CCCCC1 [cyclohexylamine]
ligand profile of TARLL4a (TARLL4a): ligand profile includes

CN(C)CCCN(C)C [N,N,N',N'-tetramethyl-1,3-propanediamine, N,N,N′,N′-Tetramethyl-1,3-propanediamine]
EC50 (TARLL3h): 116 µM
ligand recognition by TARLL3h (TARLL3h): recognizes

Cc1ccc2cc[nH]c2c1 [6-methylindole]
EC50 (TARLL1b): 9.1 µM

CCCCCCCN [heptylamine]
ligand profile of TARLL4a (TARLL4a): ligand profile includes
response of mouse TAAR1 (mouse TAAR1): slight responses

NCCCCNCCCN [spermidine]
activation of TAAR9 (cat TAAR9): activation
activation of TAAR9 (hamster TAAR9): activation
activation of TAAR9 (rabbit TAAR9): activation
activation of TAAR9 (rat TAAR9): activation
ligand recognition by mouse TAAR9 (mouse TAAR9): can recognize

NCCCCCN [Cadaverine, cadaverine]
activation of TAAR9 (cat TAAR9): activation
activation of TAAR9 (hamster TAAR9): activation
activation of TAAR9 (rabbit TAAR9): activation
activation of TAAR9 (rat TAAR9): activation
ligand recognition by mouse TAAR9 (mouse TAAR9): can recognize
ligand recognition by TARLL2a [1]: recognize
activation of TAAR13c (zebrafish TAAR13c): activates

Cc1cccc2cc[nH]c12 [7-methylindole]
EC50 (TARLL1b): 37.8 µM

COc1ccc2[nH]cc(CCN)c2c1 [5-methoxytryptamine]
EC50 (mouse HTR4): 0.09 µM

NCCc1c[nH]c2ccc(O)cc12 [Serotonin, serotonin]
EC50 (TARLL1b): 0.2 µM
EC50 (mouse TAAR1; mTAAR1): 14.4 µM
EC50 ((UniProt Z9G6W3R3V9)): 0.1 µM
EC50 (coelacanth TAARC1b): 0.83 µM and 0.8 µM
EC50 (coelacanth TARL2): 0.39 µM
EC50 (zebrafish TAAR1): 2.35 µM
EC50 (zebrafish TARL1): 0.11 µM

CCCCCN [Amylamine, amylamine]
EC50 (TARLL4a): 10.6 µM

CC(C)N [Isopropylamine, isopropylamine]
EC50 (TARLL4a): 254 µM
ligand profile of TARLL4a (TARLL4a): ligand profile includes
